Columns and labels:
CNT1 [1] = target: T1, CNT1 (Rattus norvegicus, UniProt Q62674); test: uptake/influx of radiolabelled nucleosides in Xenopus oocytes injected with pQQH1 (rat CNT1) cRNA; format: cell-based; conditions: for mediated flux, rCNT1: 10 μM permeant (FIG. 14); for mediated influx, rCNT1 (adenosine/deoxyadenosine comparison): separate experiment, inset FIG. 14A
T1 sequence (Q62674 1-648): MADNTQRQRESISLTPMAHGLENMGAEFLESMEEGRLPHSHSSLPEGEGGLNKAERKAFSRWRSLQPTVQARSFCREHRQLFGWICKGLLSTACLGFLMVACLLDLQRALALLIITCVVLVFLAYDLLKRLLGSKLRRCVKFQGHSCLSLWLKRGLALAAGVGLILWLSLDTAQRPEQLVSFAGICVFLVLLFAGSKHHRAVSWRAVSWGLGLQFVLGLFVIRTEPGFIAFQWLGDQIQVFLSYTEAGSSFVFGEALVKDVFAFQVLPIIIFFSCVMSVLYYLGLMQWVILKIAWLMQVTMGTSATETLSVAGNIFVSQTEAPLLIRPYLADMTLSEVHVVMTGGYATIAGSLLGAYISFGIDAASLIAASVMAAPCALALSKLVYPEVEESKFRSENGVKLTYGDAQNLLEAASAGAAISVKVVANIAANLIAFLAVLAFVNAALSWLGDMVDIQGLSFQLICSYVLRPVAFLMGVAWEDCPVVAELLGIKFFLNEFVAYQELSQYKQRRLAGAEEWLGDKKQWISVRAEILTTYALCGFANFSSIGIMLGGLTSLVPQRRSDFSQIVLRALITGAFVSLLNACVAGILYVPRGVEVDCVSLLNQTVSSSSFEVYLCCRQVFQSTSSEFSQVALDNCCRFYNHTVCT
Protocol: (§1) Oocytes were injected with water or RNA transcribed in vitro from the nucleoside transporter cDNA (pQQH1). […] For panels c and d, the permeant concentration was 10 μM and competing nonradioactive nucleosides were present at a concentration of 1 mM.
Oocytes injected with water or in vitro transcribed RNA from pQQH1 were incubated with radiolabeled permanent (10 μM) for 30 min (open columns) or 1 h (hatched columns) at 20° C. Each value represents the mean ±S. E. of 8-10 ooctyes.
(§2) Remaining template was removed by digestion with RQ1 DNase. Oocytes were treated with collagenase to remove follicular layers (Huang et al, 1993) and injected with 10 ng of pQQH1 cRNA or water. […] At the end of the incubation, extracellular label was removed by six rapid ice-cold washes in the appropriate transport buffer. Individual oocytes were dissolved in 5% SDS for quantitation of oocyte-associated ^3 H by liquid scintillation counting (LS 6000 IC, Beckman).

CNT1 [2] = target: T1, CNT1; test: inhibition of CNT1-mediated nucleoside (uridine, AZT, ddC) transport in Xenopus oocytes; format: cell-based
Protocol: as §1, §2

hCNT1b = target: T2, hCNT1b (Homo sapiens, UniProt O00337); test: inhibition of hCNT1b-mediated influx of [3H]uridine in Xenopus oocytes; format: cell-based; conditions: uridine 10 μM
T2 sequence (O00337 2-649 V189I/N409S/D521N): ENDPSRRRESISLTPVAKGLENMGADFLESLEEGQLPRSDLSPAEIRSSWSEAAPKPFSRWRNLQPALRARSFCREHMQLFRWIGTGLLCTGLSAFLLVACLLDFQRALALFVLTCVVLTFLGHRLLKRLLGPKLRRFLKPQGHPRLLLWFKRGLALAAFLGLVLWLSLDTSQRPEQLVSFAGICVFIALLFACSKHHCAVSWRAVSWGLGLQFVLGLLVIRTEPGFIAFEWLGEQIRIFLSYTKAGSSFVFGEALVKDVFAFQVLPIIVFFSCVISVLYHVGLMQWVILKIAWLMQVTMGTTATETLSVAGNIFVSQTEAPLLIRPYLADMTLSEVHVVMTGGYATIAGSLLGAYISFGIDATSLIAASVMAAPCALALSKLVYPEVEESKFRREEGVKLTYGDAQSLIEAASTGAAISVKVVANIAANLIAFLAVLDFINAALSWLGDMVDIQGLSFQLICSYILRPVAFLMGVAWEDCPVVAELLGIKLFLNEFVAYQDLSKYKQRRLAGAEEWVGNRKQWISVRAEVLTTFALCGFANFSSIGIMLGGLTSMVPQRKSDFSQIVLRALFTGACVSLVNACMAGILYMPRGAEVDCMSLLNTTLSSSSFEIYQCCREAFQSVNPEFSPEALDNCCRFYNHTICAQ
Excerpt: H2 O, water-injected oocytes.

rat jejunum = test: uptake of [3H]AZT by rat jejunum in vivo
CNT1 [3] = target: T1, CNT1; conditions: cited from earlier work
[4] = tested on: human erythrocyte es transporter; conditions: cited from earlier work
cit transporter = conditions: Terasaki et al, 1993; cited from earlier work
human erythrocytes = conditions: cited from earlier work
[5] = cited from earlier work
kidney = conditions: humans, mice (adenosine also rat); cited from earlier work
hCNT1a [6] = target: T3, hCNT1a (Homo sapiens, UniProt O00337); test: inhibition of hCNT1a-mediated influx of [3H]uridine in Xenopus oocytes
T3 sequence (O00337 with tags, fused parts or gaps E34G/INS140V): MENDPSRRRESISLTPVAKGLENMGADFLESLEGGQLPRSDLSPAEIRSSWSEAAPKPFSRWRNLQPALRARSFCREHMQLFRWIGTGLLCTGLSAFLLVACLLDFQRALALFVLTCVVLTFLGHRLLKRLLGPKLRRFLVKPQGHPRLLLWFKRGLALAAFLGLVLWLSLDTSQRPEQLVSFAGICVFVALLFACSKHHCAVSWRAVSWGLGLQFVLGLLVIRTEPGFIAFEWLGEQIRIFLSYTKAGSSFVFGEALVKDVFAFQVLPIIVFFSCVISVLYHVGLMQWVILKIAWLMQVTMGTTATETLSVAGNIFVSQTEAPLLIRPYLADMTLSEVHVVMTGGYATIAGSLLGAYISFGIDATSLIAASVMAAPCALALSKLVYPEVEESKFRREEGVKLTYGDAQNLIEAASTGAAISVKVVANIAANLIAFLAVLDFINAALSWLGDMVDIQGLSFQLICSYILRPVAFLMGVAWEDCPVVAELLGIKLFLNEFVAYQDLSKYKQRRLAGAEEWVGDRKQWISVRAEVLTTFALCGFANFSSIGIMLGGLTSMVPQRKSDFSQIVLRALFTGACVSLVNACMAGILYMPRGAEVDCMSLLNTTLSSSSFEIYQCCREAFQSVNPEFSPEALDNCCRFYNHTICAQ
Protocol: (§3) H2 O, water-injected oocytes. Fluxes were not corrected for the contribution of endogenous transport activity.
(§4) Defolliculated oocytes (Huang et al. 1993) were injected with either 10 nl of water containing 10 ng RNA transcript or 10 nl of water alone. Nucleoside uptake was measured after 3 d and was traced with the respective [^3 H] or [^14 C]nucleoside (Moravek Biochemicals)(5 μC 3H/ml, 1 μC 14C/ml). […] The transport buffer for adenosine influx experiments contained 1 μM deoxycoformycin to inhibit adenosine deaminase activity. Results are presented as means ±SEM for 10-12 individual oocytes. Kinetic constants were determined by non-linear regression analysis (ENZFITTER, Elsevier-Biosoft). Each experiment was performed at least twice on different batches of oocytes.

hCNT1a [7] = target: T3, hCNT1a; test: influx of radiolabelled nucleosides in Xenopus oocytes injected with hCNT1a RNA transcript; conditions: for mediated flux, hCNT1a: 10 μM permeant (FIG. 14); for mediated influx, hCNT1a (adenosine/deoxyadenosine comparison): separate experiment, inset FIG. 14A
Protocol: Oocytes were injected with either water alone or water containing hCNT1a RNA transcript.
Oocytes were injected with either water alone (.tangle-solidup.) or water containing hCNT1a RNA transcript (.smallcircle.,.circle-solid.).
Adenosine, guanosine and AZT (10 μM) fluxes were compared in the same batch of oocytes injected either with water (open columns) or with RNA transcript for hCNT1a or rCNT1 (hatched and solid columns, respectively).
as §4

CNT1 [8] = target: T1, CNT1; test: inhibition of CNT1-mediated nucleoside (uridine, AZT, ddC) transport in Xenopus oocytes; format: cell-based; conditions: 1 μM
ei transporters = conditions: Paterson et al, 1991; cited from earlier work
CNT1 [9] = target: T1, CNT1; conditions: Yao et al. unpublished; read-out: inhibition constant, recombinant rCNT1; cited from earlier work
[10] = tested on: isolated perfused rat kidneys; conditions: secreted at higher concentrations; Trimble and Coulson, 1984; cited from earlier work
hCNT1a [11] = target: T3, hCNT1a; test: cell-based
Protocol: as §3, §4

[12] = Fang et al, 1996, Yao et al. unpublished

Question: With `Cc1cn([C@H]2C[C@H](N=[N+]=[N-])[C@@H](CO)O2)c(=O)[nH]c1=O` [AZT, 3'-azido-3'-deoxythymidine] as the compound, how does the CNT1-mediated uptake/transport (CNT1 [1]; 10 μM permeant) read?
Answer: large increases

Question: And the “mediated flux, rCNT1” value (CNT1 [1])?
Answer: 4.10±0.34 pmol/oocyte.10 min^-1

Question: What about the “Na+ dependence of initial rate of expressed uptake” value (CNT1 [1]; 10 μM, 10-min flux) of the same compound?
Answer: 77%

Question: And the Vmax (CNT1 [1]; rat CNT1, permeant = labelled substance)?
Answer: 28 pmol/oocyte.min^-1

Question: What about the Km (CNT1 [1]; rate versus concentration studies, rat CNT1, read-out: apparent Km) of the same compound?
Answer: 490 µM

Question: And the IC50 (CNT1 [2])?
Answer: < 1000 µM

Question: And the “inhibition of hCNT1b-mediated influx of uridine” value (hCNT1b; analog 5 mM (FIG. 12B))?
Answer: inhibited

Question: What about the “uptake of [3H]AZT by rat jejunum in vivo” value (rat jejunum) of the same compound?
Answer: Na^+ -dependent

Question: What about the “transport by recombinant rCNT1 in oocytes” value (CNT1 [3]; Yao et al. in press) of the same compound?
Answer: transports AZT

Question: What about the “transport by equilibrative nucleoside transporters” value [4] of the same compound?
Answer: not transported

Question: What about the “cit-mediated uridine transport, inhibition” value (cit transporter) of the same compound?
Answer: inhibited

Question: And the “rate of entry into human erythrocytes relative to those of thymidine and cytidine” value (human erythrocytes)?
Answer: < 2%

Question: What about the “excretion in the urine” value ([5]; Good et al. 1990, Griffiths et al. 1992) of the same compound?
Answer: excreted in the urine either unchanged or as the glucuronide conjugate

Question: What about the “absorption by the gastrointestinal systems of humans and rats” value ([5]; oral) of the same compound?
Answer: absorbed efficiently

Question: And the net renal handling (kidney)?
Answer: net renal secretion

Question: And the “inhibition of hCNT1a-mediated influx of uridine” value (hCNT1a [6]; uridine 10 μM, analog 5 mM (FIG. 12A))?
Answer: inhibited

Question: And the “transport by hCNT1” value (hCNT1a [7])?
Answer: transport

Question: And the “mediated flux, hCNT1a” value (hCNT1a [7])?
Answer: 4.79±0.41 pmol/oocyte.10 min^-1

Question: With `O=[N+]([O-])c1ccc(CSc2ncnc3c2ncn3[C@@H]2O[C@H](CO)[C@@H](O)[C@H]2O)cc1` [NBMPR, 6-[(4-nitrobenzyl)thio]-9-p-D-ribofuranosylpurine] as the compound, how does the “effect on CNT1 transport” value (CNT1 [8]) read?
Answer: unaffected

Question: What about the “inhibition of equilibrative nucleoside transport in human erythrocytes, concentrations” value ([4]; Young and Jarvis, 1983, Paterson et al) of the same compound?
Answer: namomolar concentrations

Question: What about the “sensitivity of ei systems to inhibition” value (ei transporters) of the same compound?
Answer: low (micromolar) sensitivity

Question: For `Nc1ncnc2c1ncn2[C@@H]1O[C@H](CO)[C@@H](O)[C@H]1O` [adenosine], which “uridine:adenosine flux ratio, rCNT1” value (CNT1 [1]; 10 μM) is on record?
Answer: 110

Question: And the “mediated flux, rCNT1” value (CNT1 [1])?
Answer: 0.51±0.05 pmol/oocyte.10 min^-1

Question: And the “mediated influx, rCNT1 (adenosine/deoxyadenosine comparison)” value (CNT1 [1]; 10 μM)?
Answer: 0.70±0.0 pmol/oocyte.10 min^-1

Question: And the “selective inhibition of uridine and thymidine fluxes (rCNT1)” value (CNT1 [2]; adenosine, thymidine, cytidine, uridine>>guanosine, inosine)?
Answer: selective inhibition

Question: What about the “inhibition of uridine fluxes, hCNT1b” value (hCNT1b; competitor 1 mM (FIG. 12B)) of the same compound?
Answer: inhibited

Question: And the “Vmax relative to uridine, recombinant rCNT1” value (CNT1 [3]; [12])?
Answer: lower Vmax

Question: And the “affinity of transport by recombinant rCNT1” value (CNT1 [3]; [12])?
Answer: same high affinity as uridine

Question: And the Ki (CNT1 [9])?
Answer: 29 µM

Question: And the “plasma concentration at which adenosine is reabsorbed” value [10]?
Answer: less than 50 μM

Question: And the net renal handling (kidney)?
Answer: net renal reabsorption

Question: What about the Ki (hCNT1a [6]) of the same compound?
Answer: 50 ± 11 µM

Question: And the “inhibition of uridine fluxes, hCNT1a” value (hCNT1a [6]; uridine 10 μM, competitor 1 mM (FIG. 12A), guanosine also in FIG. 13)?
Answer: inhibited

Question: What about the “uridine:adenosine flux ratio, hCNT1a” value (hCNT1a [7]; 10 μM) of the same compound?
Answer: 75

Question: And the “mediated flux, hCNT1a” value (hCNT1a [7])?
Answer: 0.49±0.03 pmol/oocyte.10 min^-1

Question: What about the “mediated influx, hCNT1a (adenosine/deoxyadenosine comparison)” value (hCNT1a [7]; 10 μM) of the same compound?
Answer: 0.60±0.01 pmol/oocyte.10 min^-1

Question: Which “mediated influx, rCNT1 (adenosine/deoxyadenosine comparison)” value (CNT1 [1]; 10 μM) does the source give for `Nc1ncnc2c1ncn2[C@H]1C[C@H](O)[C@@H](CO)O1` [deoxyadenosine, 2'-deoxyadenosine] here?
Answer: 0.11±0.02 pmol/oocyte.10 min^-1

Question: What about the Ki (hCNT1a [11]) of the same compound?
Answer: 46 ± 14 µM

Question: What about the net renal handling (kidney) of the same compound?
Answer: net renal secretion

Question: What about the “permeant quality, hCNT1” value (hCNT1a [7]) of the same compound?
Answer: poor hCNT1 permeants

Question: What about the “mediated influx, hCNT1a (adenosine/deoxyadenosine comparison)” value (hCNT1a [7]; 10 μM) of the same compound?
Answer: 0.14±0.02 pmol/oocyte.10 min^-1

From patent publication US6153740A, “cDNA encoding nucleoside transporter” (University of Alberta, priority 1997, dated 2000)
